The values that follow come from US20210308289A1, “INACTIVATION OF HIGHLY RESISTANT INFECTIOUS MICROBES AND PROTEINS WITH UNBUFFERED HYPOHALOUS ACID COMPOSITIONS” (BRIOTECH, INC., priority 2016, published 2021).

The conditions of data set [1]: in solution; cited from earlier work.
The subject of the next data set is infectious proteins. Type of data set: biochemical.
The subject of data set [2] is spores of Bacillus subtilis. Description: Inactivation of Bacillus subtilis spores by HOBr and HOCl. The format is cell-based.
The nature of data set [3]: Application to human skin and mucous membranes. The conditions noted are these: freshly prepared from HOCl containing 200 ppm of Cl.

Regarding `OBr` [HOBr, hypobromous acid], in data set [1], the pKa result is “higher than HOCl”. Also, the “inactivation of infectious proteins” value in the data set with infectious proteins is listed as “comparable levels to those achieved using HOCl”. The compound further displayed an LRV in data set [2] (HOBr approximately 25 ppm, 20 seconds) of 6. Also, the “adverse effects on epithelial surfaces” value in data set [3] is listed as “without any indication of adverse effects”.

Regarding `OCl` [HOCl, hypochlorous acid], the pKa entry in data set [1] is “about 7.5”. The “effect on Bacillus spores” value in data set [2] (HOCl 25 ppm, 20 seconds of contact) is on record as “no detectable effect”. Moreover, the LRV in data set [2] (HOCl 230 ppm, 20 seconds) stood at 6. In data set [2] (HOCl below 230 ppm, 20 seconds), the LRVs is listed as 2-4.
